Test results as given in patent US11084822B2, “Salts and processes of preparing a PI3K inhibitor” (Incyte Corporation, priority 2015, dated 2021).

Assays:
Assay type in all cases: biochemical
PI3K = PI3K inhibition according to at least one assay described herein
PI3Kδ = PI3Kδ (Homo sapiens (Human), UniProt O00329); experiment: Example A2: PI3K Enzyme Assay ([γ-33P]ATP filter plate); settings: assay of Example A2
Method: PI3K isoforms α, β, δ and γ are purchased from Millipore (Bedford, Mass.).
The kinase reactions are conducted in clear-bottom 96-well plate from Thermo Fisher Scientific in a final volume of 24 μL. Inhibitors are first diluted serially in DMSO and added to the plate wells before the addition of other reaction components. The final concentration of DMSO in the assay is 0.5%. […] The reaction mixture is prepared containing 50 μM PIP2, kinase and varying concentration of inhibitors. […] Reactions are incubated for 180 minutes and terminated by the addition of 100 μL of 1 M potassium phosphate pH 8.0, 30 mM EDTA quench buffer. A 100 μL aliquot of the reaction solution are then transferred to 96-well Millipore MultiScreen IP 0.45 μm PVDF filter plate (The filter plate is prewetted with 200 μL 100% ethanol, distilled water, and 1 M potassium phosphate pH 8.0, respectively). […] After drying by aspiration and blotting, the plate is air dried in an incubator at 37° C. overnight. Packard TopCount adapter (Millipore) is then attached to the plate followed with addition of 120 μL Microscint 20 scintillation cocktail (Perkin Elmer) in each well. After the plate sealing, the radioactivity of the product is determined by scintillation counting on Topcount (Perkin-Elmer). […]

JAK2 = JAK2 (Homo sapiens (Human), UniProt O60674); experiment: JAK2 versus JAK1 (Assay A at 1 mM ATP); settings: ratio JAK2/JAK1, Assay A at 1 mM ATP
JAK2, sequence (O60674 whole entry, species assumed): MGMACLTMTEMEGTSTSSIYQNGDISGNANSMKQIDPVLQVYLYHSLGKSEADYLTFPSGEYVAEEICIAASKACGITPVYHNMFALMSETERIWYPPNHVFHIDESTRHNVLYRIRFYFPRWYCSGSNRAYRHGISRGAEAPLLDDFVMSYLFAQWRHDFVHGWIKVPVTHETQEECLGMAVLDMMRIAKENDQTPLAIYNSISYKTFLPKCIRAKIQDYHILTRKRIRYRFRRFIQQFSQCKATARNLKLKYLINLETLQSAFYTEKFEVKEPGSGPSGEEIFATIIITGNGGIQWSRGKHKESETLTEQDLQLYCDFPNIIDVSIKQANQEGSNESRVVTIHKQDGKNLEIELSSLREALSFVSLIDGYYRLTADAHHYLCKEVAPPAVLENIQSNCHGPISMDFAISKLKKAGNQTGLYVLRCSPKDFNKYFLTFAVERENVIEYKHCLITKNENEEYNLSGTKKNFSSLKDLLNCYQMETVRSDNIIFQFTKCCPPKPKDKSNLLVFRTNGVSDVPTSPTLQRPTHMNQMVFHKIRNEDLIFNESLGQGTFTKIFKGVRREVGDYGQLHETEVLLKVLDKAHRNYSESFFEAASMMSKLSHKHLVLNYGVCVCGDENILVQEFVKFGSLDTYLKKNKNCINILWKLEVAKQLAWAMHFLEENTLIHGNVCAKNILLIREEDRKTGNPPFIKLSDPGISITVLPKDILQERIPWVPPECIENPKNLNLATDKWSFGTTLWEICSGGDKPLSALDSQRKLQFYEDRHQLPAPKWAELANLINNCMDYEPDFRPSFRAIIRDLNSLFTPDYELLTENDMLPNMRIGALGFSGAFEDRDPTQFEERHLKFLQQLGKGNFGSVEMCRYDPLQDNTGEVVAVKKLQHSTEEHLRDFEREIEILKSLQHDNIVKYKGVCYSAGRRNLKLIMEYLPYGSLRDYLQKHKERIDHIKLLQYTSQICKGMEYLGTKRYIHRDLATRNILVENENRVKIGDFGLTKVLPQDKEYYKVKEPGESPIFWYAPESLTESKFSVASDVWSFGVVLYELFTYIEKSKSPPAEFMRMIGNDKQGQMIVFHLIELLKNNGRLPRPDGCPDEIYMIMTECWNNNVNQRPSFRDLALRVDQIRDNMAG

JAK1 = JAK1 (Homo sapiens (Human), UniProt P23458); experiment: JAK1 IC50 by the method of Assay A at 1 mM ATP
JAK1, sequence (P23458 whole entry, species assumed): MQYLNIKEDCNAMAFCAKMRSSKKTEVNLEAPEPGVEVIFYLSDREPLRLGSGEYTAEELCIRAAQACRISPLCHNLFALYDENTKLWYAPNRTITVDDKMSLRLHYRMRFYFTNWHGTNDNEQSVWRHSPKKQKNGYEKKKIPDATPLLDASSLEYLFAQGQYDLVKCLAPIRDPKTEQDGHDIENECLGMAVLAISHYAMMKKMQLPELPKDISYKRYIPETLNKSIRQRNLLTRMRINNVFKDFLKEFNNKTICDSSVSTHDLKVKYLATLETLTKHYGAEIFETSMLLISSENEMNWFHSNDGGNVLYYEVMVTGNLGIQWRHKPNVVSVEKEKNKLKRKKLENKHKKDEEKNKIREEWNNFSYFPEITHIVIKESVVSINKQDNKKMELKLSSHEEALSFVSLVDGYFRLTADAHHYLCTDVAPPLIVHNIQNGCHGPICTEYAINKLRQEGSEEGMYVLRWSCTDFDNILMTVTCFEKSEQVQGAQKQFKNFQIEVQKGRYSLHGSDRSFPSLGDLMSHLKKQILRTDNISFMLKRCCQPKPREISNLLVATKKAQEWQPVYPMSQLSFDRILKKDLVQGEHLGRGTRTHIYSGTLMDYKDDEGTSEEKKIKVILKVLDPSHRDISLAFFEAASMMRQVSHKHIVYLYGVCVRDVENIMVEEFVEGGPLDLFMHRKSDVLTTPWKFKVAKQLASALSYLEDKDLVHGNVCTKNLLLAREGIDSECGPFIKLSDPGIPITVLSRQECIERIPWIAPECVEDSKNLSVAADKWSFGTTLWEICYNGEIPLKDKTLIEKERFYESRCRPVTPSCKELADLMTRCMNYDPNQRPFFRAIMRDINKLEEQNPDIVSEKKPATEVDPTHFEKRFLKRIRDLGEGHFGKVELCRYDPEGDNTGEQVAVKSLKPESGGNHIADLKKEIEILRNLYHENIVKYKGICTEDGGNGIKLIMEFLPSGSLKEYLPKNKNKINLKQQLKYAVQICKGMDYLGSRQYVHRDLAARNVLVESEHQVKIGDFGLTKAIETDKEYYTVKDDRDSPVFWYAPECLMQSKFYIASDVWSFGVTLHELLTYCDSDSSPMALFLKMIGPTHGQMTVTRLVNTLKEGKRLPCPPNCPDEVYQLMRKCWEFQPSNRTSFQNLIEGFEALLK

PI3Kδ, sequence (O00329 whole entry, species assumed, canonical isoform): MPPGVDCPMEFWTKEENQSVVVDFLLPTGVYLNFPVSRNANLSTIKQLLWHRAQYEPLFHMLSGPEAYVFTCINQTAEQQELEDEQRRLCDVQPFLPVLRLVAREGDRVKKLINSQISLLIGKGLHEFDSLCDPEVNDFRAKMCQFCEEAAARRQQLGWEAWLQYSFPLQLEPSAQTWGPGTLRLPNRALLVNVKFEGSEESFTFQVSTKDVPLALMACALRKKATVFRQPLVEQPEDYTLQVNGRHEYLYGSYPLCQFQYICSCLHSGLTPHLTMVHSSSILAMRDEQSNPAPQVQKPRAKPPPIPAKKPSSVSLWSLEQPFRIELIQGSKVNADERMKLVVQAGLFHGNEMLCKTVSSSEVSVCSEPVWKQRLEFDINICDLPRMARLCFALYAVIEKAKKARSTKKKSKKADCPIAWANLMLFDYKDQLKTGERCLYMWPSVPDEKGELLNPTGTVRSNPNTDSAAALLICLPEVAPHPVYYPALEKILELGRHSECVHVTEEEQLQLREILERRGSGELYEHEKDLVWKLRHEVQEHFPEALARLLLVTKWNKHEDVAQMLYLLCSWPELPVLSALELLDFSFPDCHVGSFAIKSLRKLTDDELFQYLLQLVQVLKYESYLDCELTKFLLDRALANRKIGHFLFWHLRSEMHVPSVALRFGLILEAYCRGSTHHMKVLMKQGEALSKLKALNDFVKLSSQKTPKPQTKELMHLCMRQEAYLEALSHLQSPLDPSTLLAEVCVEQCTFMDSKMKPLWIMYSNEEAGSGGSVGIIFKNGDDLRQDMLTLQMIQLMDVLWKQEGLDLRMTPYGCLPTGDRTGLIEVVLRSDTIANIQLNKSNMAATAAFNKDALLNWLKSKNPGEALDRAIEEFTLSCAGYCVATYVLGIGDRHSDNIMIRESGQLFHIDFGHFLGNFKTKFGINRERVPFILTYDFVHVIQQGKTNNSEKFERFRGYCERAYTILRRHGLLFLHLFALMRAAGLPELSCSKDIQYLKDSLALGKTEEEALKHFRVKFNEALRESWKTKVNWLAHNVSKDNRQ
PI3Kδ, sequence (P27986 whole entry partner, species assumed, canonical isoform): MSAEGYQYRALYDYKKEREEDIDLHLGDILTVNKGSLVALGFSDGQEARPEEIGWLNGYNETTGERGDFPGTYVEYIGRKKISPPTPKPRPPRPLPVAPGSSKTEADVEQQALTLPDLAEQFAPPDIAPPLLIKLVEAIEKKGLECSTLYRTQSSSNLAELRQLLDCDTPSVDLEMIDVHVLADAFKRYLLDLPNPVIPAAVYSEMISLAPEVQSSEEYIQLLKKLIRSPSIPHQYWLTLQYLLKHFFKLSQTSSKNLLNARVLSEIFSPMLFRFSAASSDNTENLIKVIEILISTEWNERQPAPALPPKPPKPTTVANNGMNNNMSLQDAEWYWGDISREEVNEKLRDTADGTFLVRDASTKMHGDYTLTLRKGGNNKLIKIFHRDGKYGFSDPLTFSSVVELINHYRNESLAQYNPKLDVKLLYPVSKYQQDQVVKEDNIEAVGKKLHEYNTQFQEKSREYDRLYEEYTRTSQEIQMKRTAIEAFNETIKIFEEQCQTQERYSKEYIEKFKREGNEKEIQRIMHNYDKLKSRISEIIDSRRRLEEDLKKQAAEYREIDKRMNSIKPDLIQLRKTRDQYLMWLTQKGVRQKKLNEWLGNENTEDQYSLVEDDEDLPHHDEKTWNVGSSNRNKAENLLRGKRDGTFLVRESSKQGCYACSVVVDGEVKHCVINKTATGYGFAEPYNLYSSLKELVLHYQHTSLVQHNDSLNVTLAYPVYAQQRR

Compound	JAK2/JAK1 (JAK2)	PI3K inhibition (PI3K)	further results
CCOc1c([C@H](C)n2nc(C)c3c(N)ncnc32)cc(Cl)c(F)c1[C@@H]1CNC(=O)C1.Cl [(R)-4-(3-((S)-1-(4-amino-3-methyl-1H-pyrazolo[3,4-d]pyrimidin-1-yl)ethyl)-5-chloro-2-ethoxy-6-fluorophenyl)pyrrolidin-2-one hydrochloride]		found to be PI3K inhibitors	selectivity for PI3Kδ (PI3Kδ): selective inhibitor for PI3Kδ
C[C@@H](O)c1nc2cnc3ccsc3c2n1[C@H]1CC[C@H](CC#N)OC1 [Compound 1, ((2R,5S)-5-{2-[(1R)-1-hydroxyethyl]-1H-imidazo[4,5-d]thieno[3,2-b]pyridin-1-yl}tetrahydro-2H-pyran-2-yl)acetonitrile]	>10		IC50 (JAK1): < 100 nM
N#CCC1(n2cc(-c3ncnc4[nH]ccc34)cn2)CN([C@H]2CC[C@@H](Oc3cc(CN4CC[C@H](O)C4)cc(C(F)(F)F)n3)CC2)C1 [Compound 22, {1-(cis-4-{[4-{[(3S)-3-hydroxypyrrolidin-1-yl]methyl}-6-(trifluoromethyl)pyridin-2-yl]oxy}cyclohexyl)-3-[4-(7H-pyrrolo[2,3-d]pyrimidin-4-yl)-1H-pyrazol-1-yl]azetidin-3-yl}acetonitrile]	>10		
CCOc1c([C@H](C)n2nc(C)c3c(N)ncnc32)cc(Cl)c(F)c1[C@@H]1CNC(=O)C1 [compound of Formula I, (R)-4-(3-((S)-1-(4-amino-3-methyl-1H-pyrazolo[3,4-d]pyrimidin-1-yl)ethyl)-5-chloro-2-ethoxy-6-fluorophenyl)pyrrolidin-2-one]		found to be PI3K inhibitors	

More lines, main results first:

JAK2/JAK1 (JAK2)	Compound	PI3K inhibition (PI3K)	further results
>10	N#CC[C@]1(n2cc(-c3ncnc4[nH]ccc34)cn2)C[C@H](N2CCC(Oc3cc(CCO)cc(C(F)(F)F)n3)CC2)C1 [Compound 26, {trans-3-(4-{[4-(2-hydroxyethyl)-6-(trifluoromethyl)pyridin-2-yl]oxy}piperidin-1-yl)-1-[4-(7H-pyrrolo[2,3-d]pyrimidin-4-yl)-1H-pyrazol-1-yl]cyclobutyl}acetonitrile]		
>10	C[C@H](O)CNCc1cc(OC2CCN([C@H]3C[C@](CC#N)(n4cc(-c5ncnc6[nH]ccc56)cn4)C3)CC2)nc(C(F)(F)F)c1 [Compound 25, {trans-3-(4-{[4-({[(2S)-2-hydroxypropyl]amino}methyl)-6-(trifluoromethyl)pyridin-2-yl]oxy}piperidin-1-yl)-1-[4-(7H-pyrrolo[2,3-d]pyrimidin-4-yl)-1H-pyrazol-1-yl]cyclobutyl}acetonitrile]		
